Like-named read-outs stand apart in the source and are kept apart here.
Experiments:
[1] = test system: HCV genotype 1a (H77 strain) replicon in HUH-7 cells; assay: HCV replicon luciferase reporter assay, genotype 1a; assay type: cell-based; details: Hepatitis C virus, Huh-7, 72 h, 3 days incubation, read-out: LE_1a (EC50, range)
Summary of the method: (§1)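 Replicon inhibition for both genotypes was measured as Renilla luciferase signal (EnduRen, 7.5 μM final, 2 h) after 3-day, 37° C exposure of replicon-bearing HUH-7 cells in 4% FCS DMEM, 0.5% DMSO. The 1b construct carries S1179I; the 1a H77 construct carries P1496L and S2204I. Twenty-point, 3-fold dilutions were fitted four-parametrically for EC50, and CC50 was taken from multiplexed Cell Titer-Blue.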

[2] = test system: HCV genotype 1b (Con1) replicon in HUH-7 cells; assay: HCV replicon luciferase reporter assay, genotype 1b; assay type: cell-based; details: Hepatitis C virus, Huh-7, 72 h, 3 days incubation, read-out: LE_1b (EC50, range)
Summary of the method: as §1

[3] = HCV genotype 1a replicon luciferase
[4] = HCV genotype 1b replicon luciferase
[5] = GETYPE1A, HCV genotype 1a replicon luciferase
[6] = GETYPE1B, HCV genotype 1b replicon luciferase
[7] = HCV genotype 1a replicon luciferase assay, range class
[8] = HCV genotype 1b replicon luciferase assay, range class

SMILES	EC50 [1, 3]	EC50 [2, 4]	also measured
C[C@@H]1CC/C=C\[C@@H]2C[C@@]2(C(=O)NS(=O)(=O)C2(CF)CC2)NC(=O)[C@@H]2C[C@@H](Oc3nc4c(c5ccccc35)CCCO4)CN2C(=O)[C@@H](NC(=O)OC(C)(C)C(C)(F)F)[C@H](C)C1 [Compound 6052, 3,3-difluoro-2-methylbutan-2-yl((2R,6S,7R,9R,13aS,14aR,16aS,Z)-2-((2,3-dihydro-1H-pyrano[2,3-c]isoquinolin-6-yl)oxy)-14a-(((1-(fluoromethyl)cyclopropyl)sulfonyl)carbamoyl)-7,9-dimethyl-5,16-dioxo-1,2,3,5,6,7,8,9,10,11,13a,14,14a,15,16,16a-hexadecahydrocyclopropa[e]pyrrolo[1,2-a][1,4]diazacyclopentadecin-6-yl)carbamate]	5.01 to 35 nM	0.1 to 0.5 nM	–
CCOc1nnc(O[C@@H]2C[C@H]3C(=O)N[C@]4(C(=O)NS(=O)(=O)C5(C)CC5)C[C@H]4/C=C\CC[C@@H](C)C[C@@H](C)[C@H](NC(=O)OC(C)(C)C(F)(F)F)C(=O)N3C2)c2ccccc12 [Compound 5031, 1,1,1-trifluoro-2-methylpropan-2-yl((2R,6S,7R,9R,13aS,14aR,16aS,Z)-2-((4-ethoxyphthalazin-1-yl)oxy)-7,9-dimethyl-14a-(((1-methylcyclopropyl)sulfonyl)carbamoyl)-5,16-dioxo-1,2,3,5,6,7,8,9,10,11,13a,14,14a,15,16,16a-hexadecahydrocyclopropa[e]pyrrolo[1,2-a][1,4]diazacyclopentadecin-6-yl)carbamate]	< 5.46 nM	< 5.46 nM	–
COc1nnc(O[C@@H]2C[C@H]3C(=O)N[C@]4(C(=O)NS(=O)(=O)C5(C)CC5)C[C@H]4/C=C\CC[C@@H](C)C[C@@H](C)[C@H](NC(=O)NC(C)(C)C)C(=O)N3C2)c2ccccc12 [Compound 5012, (2R,6S,7R,9R,13aS,14aR,16aS,Z)-6-(3-(tert-butyl)ureido)-2-((4-methoxyphthalazin-1-yl)oxy)-7,9-dimethyl-N-((1-methylcyclopropyl)sulfonyl)-5,16-dioxo-1,2,3,5,6,7,8,9,10,11,13a,14,14a,15,16,16a-hexadecahydrocyclopropa[e]pyrrolo[1,2-a][1,4]diazacyclopentadecine-14a-carboxamide]	< 5.46 nM	< 5.46 nM	–
[2H]C([2H])([2H])C(OC(=O)N[C@@H]1C(=O)N2C[C@H](Oc3nccc4cc(OC)c(F)cc34)C[C@H]2C(=O)N[C@]2(C(=O)NS(=O)(=O)C3(C)CC3)C[C@H]2/C=C\CC[C@@H](C)C[C@H]1CC)(C([2H])([2H])[2H])C(F)(F)F [Compound 5429]	1.01 to 5 nM	1.01 to 5 nM	–
CC(C)Oc1ccc2c(O[C@@H]3C[C@H]4C(=O)N[C@]5(C(=O)NS(=O)(=O)C6CC6)C[C@H]5/C=C\CC[C@H](C)C[C@@H](C)[C@H](NC(=O)OC(C)(C)C(F)(F)F)C(=O)N4C3)nccc2c1 [Compound 5147, 1,1,1-trifluoro-2-methylpropan-2-yl((2R,6S,7R,9S,13aS,14aR,16aS,Z)-14a-((cyclopropylsulfonyl)carbamoyl)-2-((6-isopropoxyisoquinolin-1-yl)oxy)-7,9-dimethyl-5,16-dioxo-1,2,3,5,6,7,8,9,10,11,13a,14,14a,15,16,16a-hexadecahydrocyclopropa[e]pyrrolo[1,2-a][1,4]diazacyclopentadecin-6-yl)carbamate]	4.82 to 103 nM	4.82 to 103 nM	–
CCOc1ccc2c(O[C@@H]3C[C@H]4C(=O)N[C@]5(C(=O)NS(=O)(=O)C6(C)CC6)C[C@H]5/C=C\CC[C@@H](C)C[C@@H](CC)[C@H](NC(=O)OC(C)(C)C)C(=O)N4C3)nccc2c1 [Compound 5373, tert-butyl ((2R,6S,7R,9R,13aS,14aR,16aS,Z)-2-((6-ethoxyisoquinolin-1-yl)oxy)-7-ethyl-9-methyl-14a-(((1-methylcyclopropyl)sulfonyl)carbamoyl)-5,16-dioxo-1,2,3,5,6,7,8,9,10,11,13a,14,14a,15,16,16a-hexadecahydrocyclopropa[e]pyrrolo[1,2-a][1,4]diazacyclopentadecin-6-yl)carbamate]	1.01 to 5 nM	0.51 to 1 nM	–
CC[C@@H]1C[C@H](C)CC/C=C\[C@@H]2C[C@@]2(C(=O)NS(=O)(=O)C2(CF)CC2)NC(=O)[C@@H]2C[C@@H](Oc3ncc(N4CCOCC4)c4ccccc34)CN2C(=O)[C@H]1NC(=O)OC(C)(C)C [Compound 5441, tert-butyl ((2R,6S,7R,9R,13aS,14aR,16aS,Z)-7-ethyl-14a-(((1-(fluoromethyl)cyclopropyl)sulfonyl)carbamoyl)-9-methyl-2-((4-morpholinoisoquinolin-1-yl)oxy)-5,16-dioxo-1,2,3,5,6,7,8,9,10,11,13a,14,14a,15,16,16a-hexadecahydrocyclopropa[e]pyrrolo[1,2-a][1,4]diazacyclopentadecin-6-yl)carbamate]	1.01 to 5 nM	1.01 to 5 nM	–
COc1cc2ccnc(O[C@@H]3C[C@H]4C(=O)N[C@]5(C(=O)NS(=O)(=O)C6(CF)CC6)C[C@H]5/C=C\CC[C@H](C)C[C@@H](C)[C@H](NC(=O)OC(C)(C)C(F)(F)F)C(=O)N4C3)c2cc1F [Compound 1186]	–	–	EC50 [1, 5]: 5.01 to 35 nM; EC50 [2, 6]: 1.01 to 5 nM
[2H]C([2H])([2H])C(OC(=O)N[C@@H]1C(=O)N2C[C@H](Oc3nn(CC)c(=O)c4ccccc34)C[C@H]2C(=O)N[C@]2(C(=O)NS(=O)(=O)C3(C)CC3)C[C@H]2/C=C\CC[C@@H](C)C[C@H]1C)(C([2H])([2H])[2H])C(F)(F)F [Compound 5055]	4.82 to 103 nM	< 5.46 nM	–
COc1cc2cc(-c3ccc(OC(C)C)cc3)nc(O[C@@H]3C[C@H]4C(=O)N[C@]5(C(=O)NS(=O)(=O)C6CC6)C[C@H]5/C=C\CC[C@H](C)C[C@@H](C)[C@H](NC(=O)OC(C)(C)C)C(=O)N4C3)c2cc1F [Compound 3181, tert-butyl ((2R,6S,7R,9S,13aS,14aR,16aS,Z)-14a-((cyclopropylsulfonyl)carbamoyl)-2-((7-fluoro-3-(4-isopropoxyphenyl)-6-methoxyisoquinolin-1-yl)oxy)-7,9-dimethyl-5,16-dioxo-1,2,3,5,6,7,8,9,10,11,13a,14,14a,15,16,16a-hexadecahydrocyclopropa[e]pyrrolo[1,2-a][1,4]diazacyclopentadecin-6-yl)carbamate]	–	–	EC50 [1, 7]: 4.82 to 103 nM; EC50 [2, 8]: < 5.46 nM
COc1ccc2c(O[C@@H]3C[C@H]4C(=O)N[C@]5(C(=O)NS(=O)(=O)C6(C)CC6)C[C@H]5/C=C\CC[C@@H](C)C[C@@H](C)[C@H](NC(=O)OC(C)(C)C(F)(F)F)C(=O)N4C3)cc(-c3ccc(OC(C)C)cc3)nc2c1 [Compound 4172]	–	–	EC50 [1, 5]: < 5.46 nM; EC50 [2, 6]: < 5.46 nM
COc1cnc(O[C@@H]2C[C@H]3C(=O)N[C@]4(C(=O)NS(=O)(=O)C5(CF)CC5)C[C@H]4/C=C\CC[C@@H](C)C[C@@H](C)[C@H](NC(=O)OC4COC4)C(=O)N3C2)c2ccccc12 [Compound 1041, oxetan-3-yl ((2R,6S,7R,9R,13aS,14aR,16aS,Z)-14a-(((1-(fluoromethyl)cyclopropyl)sulfonyl)carbamoyl)-2-((4-methoxyisoquinolin-1-yl)oxy)-7,9-dimethyl-5,16-dioxo-1,2,3,5,6,7,8,9,10,11,13a,14,14a,15,16,16a-hexadecahydrocyclopropa[e]pyrrolo[1,2-a][1,4]diazacyclopentadecin-6-yl)carbamate]	–	–	EC50 [1, 7]: 4.82 to 103 nM; EC50 [2, 8]: < 5.46 nM
CC[C@@H]1C[C@H](C)CC/C=C\[C@@H]2C[C@@]2(C(=O)NS(=O)(=O)C2CC2)NC(=O)[C@@H]2C[C@@H](Oc3ncc(OC)c4ccc(F)cc34)CN2C(=O)[C@H]1NC(=O)OC(C)(C)C(F)(F)F [Compound 4002, 1,1,1-trifluoro-2-methylpropan-2-yl (2R,6S,7R,9R,13aS,14aR,16aS,Z)-14a-(cyclopropylsulfonylcarbamoyl)-7-ethyl-2-(7-fluoro-4-methoxyisoquinolin-1-yloxy)-9-methyl-5,16-dioxo-1,2,3,5,6,7,8,9,10,11,13a,14,14a,15,16,16a-hexadecahydrocyclopropa[e]pyrrolo[1,2-a][1,4]diazacyclopentadecin-6-ylcarbamate]	< 5.46 nM	< 5.46 nM	–
COc1ccc2c(O[C@@H]3C[C@H]4C(=O)N[C@]5(C(=O)NS(=O)(=O)C6CC6)C[C@H]5/C=C\CC[C@H](C)C[C@@H](C)[C@H](NC(=O)O[C@@H]5C[C@@H]6C[C@@H]6C5)C(=O)N4C3)nc(N3CCOCC3)cc2c1 [Compound 3104, (1R,3r,5S)-bicyclo[3.1.0]hexan-3-yl((2R,6S,7R,9S,13aS,14aR,16aS,Z)-14a-((cyclopropylsulfonyl)carbamoyl)-2-((6-methoxy-3-morpholinoisoquinolin-1-yl)oxy)-7,9-dimethyl-5,16-dioxo-1,2,3,5,6,7,8,9,10,11,13a,14,14a,15,16,16a-hexadecahydrocyclopropa[e]pyrrolo[1,2-a][1,4]diazacyclopentadecin-6-yl)carbamate]	–	–	EC50 [1, 7]: 4.82 to 103 nM; EC50 [2, 8]: 4.82 to 103 nM
C[C@@H]1CC/C=C\[C@@H]2C[C@@]2(C(=O)NS(=O)(=O)C2(C)CC2)NC(=O)[C@@H]2C[C@@H](Oc3ncc(OC4CC4)c4ccccc34)CN2C(=O)[C@@H](NC(=O)OC2CCCCC2)[C@H](C)C1 [Compound 4055, cyclohexyl (2R,6S,7R,9R,13aS,14aR,16aS,Z)-2-(4-cyclopropoxyisoquinolin-1-yloxy)-7,9-dimethyl-14a-(1-methylcyclopropylsulfonylcarbamoyl)-5,16-dioxo-1,2,3,5,6,7,8,9,10,11,13a,14,14a,15,16,16a-hexadecahydrocyclopropa[e]pyrrolo[1,2-a][1,4]diazacyclopentadecin-6-ylcarbamate]	< 5.46 nM	< 5.46 nM	–

Reference: patent US9499550B2 (BRISTOL-MYERS SQUIBB COMPANY, priority 2012, dated 2016)
